This note sets out measurements from patent US20120270851A1, “USE OF […] THE TREATMENT OR PREVENTION OF MALARIA” (SANOFI, priority 2009, published 2012).

Read-outs that look alike come from different tables or passages of the source.

In assay [1] the test system is P. vivax. Conditions: FIG. 2. The method, then:
(§1) In Vitro Evaluation of the Efficacy of Ferroquine Versus Other Reference Antimalaria Agents, on Blood Isolates Infected with P. vivax
(§2) The test that follows is performed on 110 isolates of P. vivax, collected in the north-west of Thailand (Tak province) on consenting patients, infected with P. vivax and in the acute phase of the infection, who came for consultation at the Shoklo Malaria Research Unit (SMRU).
(§3) The samples are collected 5 hours after their arrival and placed in 5 ml heparinized tubes, at room temperature.
(§4) The platelets and leukocytes are removed from these isolates, by analogy with the method described in Kanlaya et al., Malaria Journal, 2009, 8:115.
Russell, B. et al. 2008, Antimicrob. Agents Chemother. 52:1040-5.

Assay [2] deals with P. vivax. To be noted: read-out: EC50 (effective concentration 50); blood isolates of P. vivax from patients, north-west Thailand; FIG. 1. The protocol:
as §1, §2, §3, §4

For the substance ferroquine, the IC50 in the assay with P. vivax [1] (read-out: IC50 (inhibitory concentration 50), mature trophozoite stage, mature trophozoite stage of P. vivax) turned out to be 21 nM; in the assay on P. vivax [1] (read-out: IC50 (inhibitory concentration 50), ring stage, young immature trophozoites (ring stage) of P. vivax), 14 nM. Also, in the assay on P. vivax [2], the EC50 was about 6 nM.
